Measurements from PMC8910920 (International Journal of Molecular Sciences, 2022).
Values after ≈ are worked out from the molar mass of the structure shown.

Key:
[1] = Aqueous solubility in simulated gastric fluid; assay type: physicochemical; settings: simulated gastric conditions (pH < 5.5)
Description: These studies were subcontracted to Eurofins-CEREP or Eurofins-PANLABS. Briefly, agonists and antagonist assays were performed in cell cultures overexpressing the corresponding channel (CHO: TRPV1 and TRPA1; HEK293: TRPV3 and ASIC3). In vitro pharmacology, cellular channel functional assays: the compound was prepared in assay buffer to the final concentration, 10 μM. The compound wells, reference agonist and background vehicle controls were prepared in DMSO at 0.3%. The reference agonist for each Ion Channel assayed was prepared in a similar manner to serve as the assay control. […] The agonist assay was conducted on fluorimeter instruments where the test compound, vehicle controls, and reference agonist were added to the assay plate after a fluorescence baseline was established. […] For the antagonist assay, the compound was pre-incubated for five minutes at room temperature, and then challenged with the EC80 concentration of the reference agonist after establishment of a fluorescence baseline. […] Binding assay results are expressed as a percent of control specific binding. […] Aqueous solubility (μM) was determined by comparing the peak area of the principal peak in a calibration standard (200 μM) containing organic solvent (methanol/water, 60/40, v/v) with the peak area of the corresponding peak in a buffer sample. […] The amount of compound in organic phase was calculated by subtraction. […]

[2] = system: CCI rats, heat hypersensitivity; assay: CCI model of neuropathic pain, heat sensitivity (Hargreaves test); assay type: in vivo, rat
Description: The CCI model of neuropathic pain allowed the evaluation of the effect RGM8-51 on cold, heat and mechanical sensitivity, as assayed by the acetone test, the Hargreaves test, and the automatized von Frey test, respectively. RGM8-51 was applied either locally (i.pl.; 10 µg) in the affected paw or systemically (intraperitoneally, i.p., 10 and 30 mg/kg) and the effect evaluated before (Baseline) and after CCI surgery. The nocifensive response after administration of RGM8-51 was compared with that of vehicle, while non-operated animals and the uninjured (contralateral) hind paw in CCI animals were used as controls.
Adult male Sprague-Dawley rats (weighing 200–220 g/6–8 weeks old) were used in these experiments. All experimental procedures were conducted according to the animal welfare guidelines of the European Community (European Directive 2010/63/UE) to minimize animal suffering and were approved by Universidad Complutense de Madrid and Comunidad de Madrid ethical committees on animal experimentation (PROEX 207.8/21). […]
For behavioral testing, rats were placed in individual methacrylate boxes with a wire mesh floor, and after a period of 15 min acclimatization, the cold, heat and mechanical sensitivity of the ipsilateral and contralateral paws was determined. Cold sensitivity was assessed with the acetone test. In total, 100 µL acetone were locally applied to the plantar surface of the hind paw and the duration of the subsequent nocifensive response (licking, brushing, and flinching of the paw) was determined during 60 s. Acetone application and assessment were repeated 2 times with a 5 min interval and the sum of the two values was recorded. Heat sensitivity was determined with the Hargreaves test, which uses infrared light as a heat source, with a Hargreaves apparatus (Serie 8, Model 336, IITC Life Science, Woodland Hills, CA USA). The light beam was directed to the plantar surface of the hind paw and the time from the beginning of irradiation to the appearance of first paw withdrawal movement was measured (paw withdrawal latency). […]

C[C@@H]1C(=O)N(C[C@H](Cc2ccccc2)N(Cc2ccccc2)Cc2ccccc2)[C@]1(Cc1ccccc1)C(=O)OC(C)(C)C [RGM8-51, 4(S)-Benzyl-3S-methyl-4-(tert-butoxy)carbonyl-1-[(2′S-dibenzylamino-3′-phenyl)prop-1′-yl]-2-oxoazetidine]
solubility [1]: 198 µM (≈ 117 µg/mL)
heat hypersensitivity in CCI rats ([2]; i.p. 10 and 30 mg/kg, dose-dependently): effective in decreasing hypersensitivity to heat
heat hypersensitivity in CCI rats ([2]; i.pl. 10 µg): did not influence the animal response to heat
heat perception in non-operated animals (baseline) or uninjured hind paw ([2]; rat, in vivo): had no effect on heat perception
